# In patent publication US4105603A, “Peptides which effect release of hormones” (The Salk Institute for Biological Studies, priority 1977, dated 1978):
# Non-standard residues stand in square brackets, D forms with d.
# Columns and labels:
# [1] = tested on: rat anterior pituitary cells; assay: In vitro bioassay: secretion of growth hormone by primary cultures of dissociated rat anterior pituitary cells; type: cell-based; conditions: cultured rat anterior pituitary cells, somatostatin = 100
# Experimental: In vitro Bioassay: The effects of the various peptides of the invention were tested in vitro on the secretion of growth hormone by primary cultures of enzymatically dissociated rat anterior pituitary cells by the method of Vale et al., Endocrinology 91: p 562-571 (1972). The assay is made by treating pituitary glands removed from rats to separate cells therefrom. The cells are placed in culture dishes in Dulbecco's Modified Eagle Medium (Dulbecco et al., Virology, Vol. 8, p. 396, […]). Carbon dioxide gas and oxygen are supplied to the cell cultures which are maintained at 37° C for 4-5 days prior to use in the assay. Following media changes, cell cultures are incubated for a period of 4 hours and particular somatostatin peptides are added thereto. Radioimmunoassay analysis is used to determine the rate of growth hormone secretion which is expressed in nanograms per hour.
# GH determinations were performed on tissue culture media utilizing the following reagents: NIAMDD rat GH standard (GH-RP-1), NIAMDD monkey anti-rat GH (GH-Serum-3), and highly purified rat GH for iodination.
# (§1) All experiments were carried on in a randomized block design. Following analysis of variance difference between treatments were determined by the multiple range tests of Dunnett and Duncan. Potency values were calculated from four or six point bioassays.
# [2] = tested on: insulin secretion; assay: In vivo bioassay: inhibition of insulin release, portal vein plasma after i.v. peptide; set-up: species or system Sprague-Dawley-CD rats; conditions: rat, external jugular vein administration, somatostatin = 100
# Experimental: (§2) An investigation of the effect of somatostatin, dihydrosomatostatin, (as controls) and the peptides of the invention to inhibit the release of glucagon and insulin was made as follows:
# (§3) In vivo Bioassay: Male Sprague-Dawley-CD rats weighing 180-200 g housed in temperature and humidity controlled quarters with 14h light and 10h dark (light 0700-[…]) were used in all experiments. Animals were fed a standard ration and tap water ad libitum. Experiments were carried out at least 5 days after arrival of rats from the supplier between the hours 1400 to 1600. After ether anesthesia, peptides or saline were administered in a volume of 0.2 ml. via the external jugular vein. Animals remained anesthetized until the time of blood collection from the portal vein. […]
# (§4) Plasma was stored at -20° C for insulin and glucagon determinations. Insulin levels were determined by the method of Herbert et al, […]. […] Glucagon was determined by the method of Faloona and Unger, in Jaffe et al ed., Methods of Hormone Radioimmunoassay, Academic Press, New York, 1974, p. […] was determined by the glucose oxidase method, utilizing a Beckman Glucose Analyzer.
# as §1
# [3] = tested on: glucagon secretion; assay: In vivo bioassay: inhibition of glucagon release, portal vein plasma after i.v. peptide; set-up: species or system Sprague-Dawley-CD rats; conditions: rat, external jugular vein administration, somatostatin = 100
# Experimental: as §2, §3, §4, §1
Molecule,"percent effectiveness for inhibiting secretion of Growth Hormone, somatostatin taken as the base [1]","percent effectiveness for inhibiting secretion of Insulin, somatostatin taken as the base [2]","percent effectiveness for inhibiting secretion of Glucagon, somatostatin taken as the base [3]"
"C[C@H](N)C(=O)NCC(=O)N[C@H]1CSSC[C@@H](C(=O)O)NC(=O)[C@H](CO)NC(=O)[C@H]([C@@H](C)O)NC(=O)[C@H](Cc2ccccc2)NC(=O)[C@H]([C@@H](C)O)NC(=O)[C@H](CCCCN)NC(=O)[C@H](Cc2c[nH]c3ccccc23)NC(=O)[C@H](Cc2ccccc2)NC(=O)[C@H](Cc2ccccc2)NC(=O)[C@H](CC(N)=O)NC(=O)[C@H](CCCCN)NC1=O [Somatostatin, somatostatin]",100%,100%,100%
H-CFF[dW]KFFC-OH (cysteine pairing not given here) [desR1 D-Trp Phe desR4 desR5],6%,80%,100%
